Legend:
[1] = biological target: Mu-type opioid receptor (Rattus norvegicus) (UniProt P33535)
[2] = biological target: Substance-P receptor (Cavia porcellus) (UniProt P30547); details: Hartley, Ileum
Chain of Substance-P receptor (Cavia porcellus) (P30547 whole entry): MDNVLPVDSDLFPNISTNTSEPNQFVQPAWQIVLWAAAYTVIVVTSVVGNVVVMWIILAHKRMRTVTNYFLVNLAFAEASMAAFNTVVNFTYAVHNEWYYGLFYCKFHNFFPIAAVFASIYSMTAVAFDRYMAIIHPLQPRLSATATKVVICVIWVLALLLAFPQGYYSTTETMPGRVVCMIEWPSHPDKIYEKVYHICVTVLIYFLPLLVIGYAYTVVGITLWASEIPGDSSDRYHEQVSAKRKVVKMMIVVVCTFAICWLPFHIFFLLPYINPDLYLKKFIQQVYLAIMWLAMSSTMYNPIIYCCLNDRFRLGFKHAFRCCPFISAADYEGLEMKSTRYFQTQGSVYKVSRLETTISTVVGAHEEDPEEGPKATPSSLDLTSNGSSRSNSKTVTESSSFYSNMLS

Chain of Mu-type opioid receptor (Rattus norvegicus) (P33535 whole entry): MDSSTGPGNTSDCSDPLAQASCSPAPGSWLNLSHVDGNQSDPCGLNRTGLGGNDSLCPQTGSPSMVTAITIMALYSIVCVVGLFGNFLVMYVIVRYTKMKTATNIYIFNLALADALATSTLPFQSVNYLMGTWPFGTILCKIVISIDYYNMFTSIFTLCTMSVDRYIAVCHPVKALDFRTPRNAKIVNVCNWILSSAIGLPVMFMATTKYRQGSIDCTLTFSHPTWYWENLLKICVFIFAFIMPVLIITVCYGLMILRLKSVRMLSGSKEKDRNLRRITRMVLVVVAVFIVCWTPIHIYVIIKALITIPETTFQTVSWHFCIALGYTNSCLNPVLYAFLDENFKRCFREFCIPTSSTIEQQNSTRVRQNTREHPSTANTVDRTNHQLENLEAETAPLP

## CSCC[C@H](NC(=O)[C@H](Cc1ccccc1)NC(=O)CNC(=O)[C@@H](C)NC(=O)[C@@H](N)Cc1ccc(O)cc1)C(=O)N1CCC[C@H]1C(=O)N[C@@H](CC(C)C)C(=O)N[C@@H](Cc1c[nH]c2ccccc12)C(=O)OCc1cc(C(F)(F)F)cc(C(F)(F)F)c1
[1]
  pEC50: 7.5 nM

## CSCC[C@H](NC(=O)[C@H](Cc1ccccc1)NC(=O)CNC(=O)[C@@H](C)NC(=O)[C@@H](N)Cc1ccc(O)cc1)C(=O)N1CCC[C@H]1C(=O)N[C@@H](CC(C)C)C(=O)N[C@@H](Cc1c[nH]c2ccccc12)C(=O)NCc1cc(C(F)(F)F)cc(C(F)(F)F)c1
[2]
  Ke: 10 nM
[1]
  pEC50: 8.2 nM

## CSCC[C@H](NC(=O)[C@H](Cc1ccccc1)NC(=O)CNC(=O)[C@@H](C)NC(=O)[C@@H](N)Cc1ccc(O)cc1)C(=O)N1CCC[C@H]1C(=O)N[C@@H](CC(C)C)C(=O)N[C@@H](Cc1c[nH]c2ccccc12)C(=O)NCc1ccccc1
[2]
  Ke: 9.9 nM
[1]
  pEC50: 7.7 nM
